Laboratory results taken from ChEMBL document CHEMBL3046553, “Bioanalytical method development and validation for simultaneous estimation of (R)- and (S)-isomers of S002-333: a potent novel anti-thrombotic agent using LCMS/MS” (Med Chem Res, 2011).

Tests used:
Plasma = experiment: Drug recovery in New Zealand Oryctolagus cuniculus (rabbit) plasma at 1.56 to 400 ng/ml; type: ADME, cell-free
[1] = Volume of distribution in New Zealand Oryctolagus cuniculus (rabbit) at 2 mg/kg, iv; type: ADME, organism-based; set-up: dose 2 mg/kg, route intravenous; settings: in vivo
[2] = Clearance in New Zealand Oryctolagus cuniculus (rabbit) at 2 mg/kg, iv; type: ADME, organism-based; set-up: dose 2 mg/kg, route intravenous; settings: in vivo
[3] = Initial plasma concentration in New Zealand Oryctolagus cuniculus (rabbit) at 2 mg/kg, iv; type: ADME, organism-based; set-up: dose 2 mg/kg, route intravenous
[4] = AUC (0 to infinity) in New Zealand Oryctolagus cuniculus (rabbit) at 2 mg/kg, iv; type: ADME, organism-based; set-up: time infinity, dose 2 mg/kg, route intravenous; settings: plasma
[5] = Half life in New Zealand Oryctolagus cuniculus (rabbit) at 2 mg/kg, iv; type: ADME, organism-based; set-up: dose 2 mg/kg, route intravenous; settings: in vivo

Row | Drug recovery (Plasma) [%] | Vd [1] [L/kg] | clearance [2] [mL/min/kg] | C0 [3] [ng/mL] | AUC(0-inf) [4] [ng·h/mL] | half-life [5] [h] | Compound
1 | 40.88 | 29.8 | 84.3 | 276 | 436 | 4.01 | COc1ccc(S(=O)(=O)N2Cc3[nH]c4ccccc4c3C[C@H]2C(N)=O)cc1 [S007-1558 (S)]
2 | 53.21 | 22 | 64.7 | 288 | 568 | 3.84 | COc1ccc(S(=O)(=O)N2Cc3[nH]c4ccccc4c3C[C@@H]2C(N)=O)cc1
